Measured values published in publication PMC3914206.

Columns and labels:
panel of 442 kinases [1] = target: T1, panel of 442 kinases (Homo sapiens, UniProt P00519, E255K); format: binding; settings: Compound Concentration 10 µM
T1 construct: purchased KINOMEscan
Excerpt: (§1) We assessed the selectivity of members of this scaffold using the KINOMEscan methodology across a near comprehensive panel of 442 kinases [[18,27]].

panel of 442 kinases [2] = target: T2, panel of 442 kinases (Homo sapiens, UniProt Q6PHR2); format: binding; settings: kinase ULK3; compound concentration 10 µM
T2 construct: purchased KINOMEscan
T2 sequence (Q6PHR2 1-472): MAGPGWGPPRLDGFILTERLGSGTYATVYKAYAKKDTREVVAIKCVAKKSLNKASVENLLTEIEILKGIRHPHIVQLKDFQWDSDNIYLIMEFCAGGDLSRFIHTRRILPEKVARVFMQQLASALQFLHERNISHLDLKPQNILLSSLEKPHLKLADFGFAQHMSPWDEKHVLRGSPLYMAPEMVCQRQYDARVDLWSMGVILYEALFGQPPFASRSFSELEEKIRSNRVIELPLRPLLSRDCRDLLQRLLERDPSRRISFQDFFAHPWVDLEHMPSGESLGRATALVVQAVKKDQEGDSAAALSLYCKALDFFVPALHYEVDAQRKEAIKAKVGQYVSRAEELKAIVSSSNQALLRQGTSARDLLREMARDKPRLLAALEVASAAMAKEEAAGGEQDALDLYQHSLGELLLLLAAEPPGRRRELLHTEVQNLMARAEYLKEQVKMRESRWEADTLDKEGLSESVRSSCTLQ
Excerpt: as §1

T1 sequence (P00519 whole entry E255K): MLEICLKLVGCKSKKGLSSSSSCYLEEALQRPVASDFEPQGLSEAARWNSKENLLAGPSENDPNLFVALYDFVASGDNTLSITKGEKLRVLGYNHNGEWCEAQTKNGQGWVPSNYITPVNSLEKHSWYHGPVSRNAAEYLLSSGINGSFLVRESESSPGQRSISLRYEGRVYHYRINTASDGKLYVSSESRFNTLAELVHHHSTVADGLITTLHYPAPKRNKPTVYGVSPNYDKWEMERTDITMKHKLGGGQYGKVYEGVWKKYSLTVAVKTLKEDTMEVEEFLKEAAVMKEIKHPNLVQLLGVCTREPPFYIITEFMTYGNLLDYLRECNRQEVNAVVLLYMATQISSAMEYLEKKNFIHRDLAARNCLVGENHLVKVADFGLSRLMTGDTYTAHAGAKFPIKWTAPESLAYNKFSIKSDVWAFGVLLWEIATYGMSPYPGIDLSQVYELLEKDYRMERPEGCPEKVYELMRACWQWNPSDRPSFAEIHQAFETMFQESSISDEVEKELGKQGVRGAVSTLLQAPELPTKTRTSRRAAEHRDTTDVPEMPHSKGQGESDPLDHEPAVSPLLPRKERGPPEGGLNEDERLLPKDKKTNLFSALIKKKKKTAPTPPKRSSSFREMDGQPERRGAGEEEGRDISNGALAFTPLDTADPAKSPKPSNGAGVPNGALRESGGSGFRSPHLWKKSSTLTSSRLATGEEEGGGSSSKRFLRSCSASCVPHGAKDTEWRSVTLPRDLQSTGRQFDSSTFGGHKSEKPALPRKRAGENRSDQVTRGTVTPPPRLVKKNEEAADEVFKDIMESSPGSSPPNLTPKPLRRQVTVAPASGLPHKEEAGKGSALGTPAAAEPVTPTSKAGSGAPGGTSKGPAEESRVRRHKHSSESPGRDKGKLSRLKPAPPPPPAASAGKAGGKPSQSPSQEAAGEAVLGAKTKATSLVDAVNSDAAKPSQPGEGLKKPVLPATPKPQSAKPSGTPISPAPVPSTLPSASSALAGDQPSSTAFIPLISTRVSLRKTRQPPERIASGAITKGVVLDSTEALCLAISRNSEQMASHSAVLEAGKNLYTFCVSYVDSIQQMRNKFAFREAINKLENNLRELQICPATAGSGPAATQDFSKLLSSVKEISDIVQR

Compound: COc1cc(C(=O)N2CCC(N3CCN(C)CC3)CC2)ccc1Nc1ncc2c(n1)N(C)c1ccccc1C(=O)N2C [15 (LRRK2-IN-1)]
- KINOMEscan: ABL1(E255K)-phosphorylated (panel of 442 kinases [1]): 80
- % Ctrl, ULK3 (panel of 442 kinases [2]): 100 % Ctrl

Compound: CCOc1cc(C(=O)N2CCC(N3CCN(C)CC3)CC2)ccc1Nc1ncc2c(n1)N(C1CCCC1)c1ccccc1C(=O)N2C [Compound 26]
- KINOMEscan: ABL1(E255K)-phosphorylated (panel of 442 kinases [1]): 100
- % Ctrl, ULK3 (panel of 442 kinases [2]): 100 % Ctrl

Compound: COc1cc(C(=O)N2CCC(N3CCN(C)CC3)CC2)ccc1Nc1ncc2c(n1)N1CCc3cccc(c31)C(=O)N2C [Compound 24]
- % Ctrl, ULK3 (panel of 442 kinases [2]): 100 % Ctrl

Compound: COc1cc(C(=O)N2CCC(N3CCN(C)CC3)CC2)ccc1Nc1ncc2c(n1)N(C1CCCC1)c1ccccc1C(=O)N2C [Compound 25, 11-cyclopentyl-2-((2-methoxy-4-(4-(4-methylpiperazin-1-yl)piperidine-1-carbonyl)phenyl)amino)-5-methyl-5H-benzo[e]pyrimido[5,4-b][1,4]diazepin-6(11H)-one]
- KINOMEscan: ABL1(E255K)-phosphorylated (panel of 442 kinases [1]): 92
- % Ctrl, ULK3 (panel of 442 kinases [2]): 100 % Ctrl
